# Columns and labels:
# [1] = biological target: GABA-A receptor; alpha-1/beta-2/gamma-2 (Homo sapiens) (UniProt P14867+P47870+P18507); assay: Agonist activity at recombinant human GABA-A alpha1beta2gamma2S receptor transiently expressed in human tsA201 cells assessed as GABA-induced maximum response incubated for 30 mins and measured up to 90 secs by FMP dye based FLIPR membrane potential blue assay relative to GABA; type: cell-based
# [2] = biological target: T1, Sodium- and chloride-dependent GABA transporter 2 (Homo sapiens, UniProt Q9NSD5); assay: Inhibition of human GAT2 expressed in Flp-In CHO cells assessed as reduction in [3H]GABA uptake incubated for 3 mins by liquid scintillation counting method; type: cell-based
# T1 sequence (Q9NSD5 whole entry): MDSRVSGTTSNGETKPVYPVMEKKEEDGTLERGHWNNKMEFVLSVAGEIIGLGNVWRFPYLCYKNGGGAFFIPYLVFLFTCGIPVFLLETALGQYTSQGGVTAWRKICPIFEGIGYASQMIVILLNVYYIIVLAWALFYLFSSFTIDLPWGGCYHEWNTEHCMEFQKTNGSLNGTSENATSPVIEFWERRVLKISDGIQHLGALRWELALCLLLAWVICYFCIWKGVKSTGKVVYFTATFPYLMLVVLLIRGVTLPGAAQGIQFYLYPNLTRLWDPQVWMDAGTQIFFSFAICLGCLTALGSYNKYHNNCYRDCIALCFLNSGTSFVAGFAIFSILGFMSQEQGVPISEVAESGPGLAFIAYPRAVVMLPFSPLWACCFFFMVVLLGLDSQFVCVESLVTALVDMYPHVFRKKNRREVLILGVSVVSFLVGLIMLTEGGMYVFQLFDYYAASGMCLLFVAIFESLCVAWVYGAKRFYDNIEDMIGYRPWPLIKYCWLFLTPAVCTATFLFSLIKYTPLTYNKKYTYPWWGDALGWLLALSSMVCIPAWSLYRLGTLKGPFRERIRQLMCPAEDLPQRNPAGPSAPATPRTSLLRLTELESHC
# [3] = biological target: T2, Sodium- and chloride-dependent GABA transporter 3 (Homo sapiens, UniProt P48066); assay: Inhibition of human GAT3 expressed in Flp-In CHO cells assessed as reduction in [3H]GABA uptake incubated for 3 mins by liquid scintillation counting method; type: cell-based; conditions: read-out: IC50
# T2 sequence (P48066 whole entry): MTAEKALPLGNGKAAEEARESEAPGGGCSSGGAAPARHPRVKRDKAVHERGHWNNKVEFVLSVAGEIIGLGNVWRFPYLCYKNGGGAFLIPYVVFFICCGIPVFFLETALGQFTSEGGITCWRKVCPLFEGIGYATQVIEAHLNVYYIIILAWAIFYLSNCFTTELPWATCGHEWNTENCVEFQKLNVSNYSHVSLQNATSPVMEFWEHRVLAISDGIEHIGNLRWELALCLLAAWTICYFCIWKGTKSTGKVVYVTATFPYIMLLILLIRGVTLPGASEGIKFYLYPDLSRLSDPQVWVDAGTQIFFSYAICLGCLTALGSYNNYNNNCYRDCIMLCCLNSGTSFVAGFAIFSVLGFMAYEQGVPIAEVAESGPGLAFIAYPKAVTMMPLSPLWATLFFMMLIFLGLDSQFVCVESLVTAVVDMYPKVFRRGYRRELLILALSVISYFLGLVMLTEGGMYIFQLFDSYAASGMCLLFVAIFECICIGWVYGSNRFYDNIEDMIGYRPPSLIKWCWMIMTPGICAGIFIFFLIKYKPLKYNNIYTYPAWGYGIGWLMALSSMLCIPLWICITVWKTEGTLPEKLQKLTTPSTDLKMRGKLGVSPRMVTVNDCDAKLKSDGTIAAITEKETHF
# [4] = species on record: Homo sapiens; assay: Agonist activity at recombinant human GABA-A alpha3beta2gamma2S receptor transiently expressed in human tsA201 cells assessed as GABA-induced maximum response incubated for 30 mins and measured up to 90 secs by FMP dye based FLIPR membrane potential blue assay relative to GABA; type: cell-based
# [5] = biological target: Gamma-aminobutyric acid receptor subunit alpha-4/beta-2/gamma-2 (Homo sapiens, UniProt P47870+P18507+P48169); assay: Agonist activity at recombinant human GABA-A alpha4beta2gamma2S receptor transiently expressed in human tsA201 cells assessed as GABA-induced maximum response incubated for 30 mins and measured up to 90 secs by FMP dye based FLIPR membrane potential blue assay relative to GABA; type: cell-based
# [6] = biological target: Gamma-aminobutyric acid receptor subunit alpha-5/beta-2/gamma-2 (Homo sapiens) (UniProt P47870+P18507+P31644); assay: Agonist activity at recombinant human GABA-A alpha5beta2gamma2S receptor transiently expressed in human tsA201 cells assessed as GABA-induced maximum response incubated for 30 mins and measured up to 90 secs by FMP dye based FLIPR membrane potential blue assay relative to GABA; type: cell-based
# [7] = biological target: T3, Gamma-aminobutyric acid receptor subunit rho-1 (Homo sapiens, UniProt P24046); assay: Agonist activity at recombinant human GABA-A rho-1 receptor transiently expressed in human tsA201 cells assessed as GABA-induced maximum response incubated for 30 mins and measured up to 90 secs by FMP dye based FLIPR membrane potential blue assay relative to GABA; type: cell-based
# [8] = biological target: Sodium- and chloride-dependent GABA transporter 1 (Homo sapiens, UniProt P30531); assay: Inhibition of human GAT1 expressed in Flp-In CHO cells assessed as reduction in [3H]GABA uptake at 100 uM incubated for 3 mins by liquid scintillation counting method relative to control; type: cell-based
# [9] = biological target: T4, Sodium- and chloride-dependent GABA transporter 2 (Homo sapiens) (UniProt Q9NSD5); assay: Inhibition of human GAT2 expressed in Flp-In CHO cells assessed as reduction in [3H]GABA uptake at 100 uM incubated for 3 mins by liquid scintillation counting method relative to control; type: cell-based
# T4 sequence (whole entry): T1 sequence (Q9NSD5 whole entry)
# [10] = biological target: T5, Sodium- and chloride-dependent GABA transporter 3 (Homo sapiens) (UniProt P48066); assay: Inhibition of human GAT3 expressed in Flp-In CHO cells assessed as reduction in [3H]GABA uptake at 100 uM incubated for 3 mins by liquid scintillation counting method relative to control; type: cell-based
# T5 sequence (whole entry): T2 sequence (P48066 whole entry)
# [11] = biological target: T6, Sodium- and chloride-dependent betaine transporter (Homo sapiens) (UniProt P48065); assay: Inhibition of human BGT1 expressed in Flp-In CHO cells assessed as reduction in [3H]GABA uptake at 100 uM incubated for 3 mins by liquid scintillation counting method relative to control; type: cell-based
# T6 sequence (whole entry): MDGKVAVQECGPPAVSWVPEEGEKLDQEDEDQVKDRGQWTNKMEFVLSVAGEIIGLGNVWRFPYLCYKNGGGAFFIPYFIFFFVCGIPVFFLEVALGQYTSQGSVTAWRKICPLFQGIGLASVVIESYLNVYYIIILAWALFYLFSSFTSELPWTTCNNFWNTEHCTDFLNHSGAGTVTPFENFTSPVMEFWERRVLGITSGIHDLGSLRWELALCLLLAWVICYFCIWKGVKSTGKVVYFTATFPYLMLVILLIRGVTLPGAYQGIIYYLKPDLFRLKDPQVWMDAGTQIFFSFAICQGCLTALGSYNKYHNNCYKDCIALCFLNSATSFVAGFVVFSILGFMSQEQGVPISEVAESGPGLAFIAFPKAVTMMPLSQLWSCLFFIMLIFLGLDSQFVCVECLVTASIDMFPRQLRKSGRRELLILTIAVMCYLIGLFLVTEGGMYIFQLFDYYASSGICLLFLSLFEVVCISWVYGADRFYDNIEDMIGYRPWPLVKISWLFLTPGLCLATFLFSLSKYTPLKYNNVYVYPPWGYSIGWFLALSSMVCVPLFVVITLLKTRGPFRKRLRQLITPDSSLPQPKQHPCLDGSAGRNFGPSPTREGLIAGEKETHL
# [12] = biological target: GABA-A receptor; anion channel; assay: Displacement of [3H]muscimol from GABA(A) receptor in Sprague-Dawley rat cortical synaptic membranes by liquid scintillation counting
# [13] = biological target: T3, Gamma-aminobutyric acid receptor subunit rho-1; assay: Agonist activity at recombinant human GABA-A rho-1 receptor transiently expressed in human tsA201 cells incubated for 30 mins and measured up to 90 secs by FMP dye based FLIPR membrane potential blue assay; type: cell-based; conditions: read-out: EC50
# [14] = biological target: T7, GABA-A receptor; alpha-1/beta-2/gamma-2 (Homo sapiens, UniProt P14867+P18507+P47870); assay: Agonist activity at recombinant human GABA-A alpha1beta2gamma2S receptor transiently expressed in human tsA201 cells incubated for 30 mins and measured up to 90 secs by FMP dye based FLIPR membrane potential blue assay; type: cell-based
# T7 sequence (P14867 whole entry): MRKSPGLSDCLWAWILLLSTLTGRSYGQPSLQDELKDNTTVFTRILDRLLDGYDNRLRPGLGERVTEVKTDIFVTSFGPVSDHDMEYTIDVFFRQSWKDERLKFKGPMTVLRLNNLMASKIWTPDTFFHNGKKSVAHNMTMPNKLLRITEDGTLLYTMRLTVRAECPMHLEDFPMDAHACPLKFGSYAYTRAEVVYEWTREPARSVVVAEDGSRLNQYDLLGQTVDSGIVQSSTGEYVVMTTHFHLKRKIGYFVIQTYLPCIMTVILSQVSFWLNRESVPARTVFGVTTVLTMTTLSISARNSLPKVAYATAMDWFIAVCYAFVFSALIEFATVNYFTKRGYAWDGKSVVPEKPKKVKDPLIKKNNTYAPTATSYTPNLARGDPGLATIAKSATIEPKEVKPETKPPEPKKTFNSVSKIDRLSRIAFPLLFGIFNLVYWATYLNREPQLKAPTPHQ
# T7 sequence (P47870 whole entry): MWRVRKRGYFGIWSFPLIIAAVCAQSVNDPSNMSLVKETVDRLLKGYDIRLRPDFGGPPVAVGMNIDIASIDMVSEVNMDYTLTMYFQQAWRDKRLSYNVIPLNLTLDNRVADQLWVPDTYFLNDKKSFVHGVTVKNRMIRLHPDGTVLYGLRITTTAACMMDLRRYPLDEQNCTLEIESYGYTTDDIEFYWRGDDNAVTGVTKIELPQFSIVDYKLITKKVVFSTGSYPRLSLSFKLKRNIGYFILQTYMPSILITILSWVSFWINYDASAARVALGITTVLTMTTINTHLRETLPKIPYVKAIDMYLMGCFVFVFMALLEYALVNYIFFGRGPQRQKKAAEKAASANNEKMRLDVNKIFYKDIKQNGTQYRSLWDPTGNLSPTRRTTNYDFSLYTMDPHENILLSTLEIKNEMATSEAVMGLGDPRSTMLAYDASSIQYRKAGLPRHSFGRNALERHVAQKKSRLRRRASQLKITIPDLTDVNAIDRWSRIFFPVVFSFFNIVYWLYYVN
# T7 sequence (P18507 whole entry): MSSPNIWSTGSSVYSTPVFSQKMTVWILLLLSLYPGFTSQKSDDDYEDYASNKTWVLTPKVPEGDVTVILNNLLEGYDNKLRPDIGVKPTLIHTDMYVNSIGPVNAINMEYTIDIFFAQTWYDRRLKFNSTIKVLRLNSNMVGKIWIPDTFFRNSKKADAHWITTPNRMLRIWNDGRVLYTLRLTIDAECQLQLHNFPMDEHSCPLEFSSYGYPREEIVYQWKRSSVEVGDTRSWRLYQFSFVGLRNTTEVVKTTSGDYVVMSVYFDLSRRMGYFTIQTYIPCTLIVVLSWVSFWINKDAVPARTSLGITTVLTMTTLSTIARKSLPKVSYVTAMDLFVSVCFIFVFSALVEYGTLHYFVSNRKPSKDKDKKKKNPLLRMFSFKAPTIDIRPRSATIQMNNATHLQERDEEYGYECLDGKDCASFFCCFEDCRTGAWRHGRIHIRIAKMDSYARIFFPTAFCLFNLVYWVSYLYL
# [15] = cells; type: cell-based; conditions: Homo sapiens, tsA201, 0.5 h
# [16] = biological target: Gamma-aminobutyric acid receptor subunit alpha-4/beta-2/gamma-2 (Homo sapiens, UniProt P18507+P47870+P48169); assay: Agonist activity at recombinant human GABA-A alpha4beta2gamma2S receptor transiently expressed in human tsA201 cells incubated for 30 mins and measured up to 90 secs by FMP dye based FLIPR membrane potential blue assay; type: cell-based
# [17] = biological target: T8, Gamma-aminobutyric acid receptor subunit alpha-5/beta-2/gamma-2 (Homo sapiens, UniProt P18507+P31644+P47870); assay: Agonist activity at recombinant human GABA-A alpha5beta2gamma2S receptor transiently expressed in human tsA201 cells incubated for 30 mins and measured up to 90 secs by FMP dye based FLIPR membrane potential blue assay; type: cell-based
# T8 sequence (P47870 whole entry): T7 sequence (P47870 whole entry)
# T8 sequence (P18507 whole entry): T7 sequence (P18507 whole entry)
# T8 sequence (P31644 whole entry): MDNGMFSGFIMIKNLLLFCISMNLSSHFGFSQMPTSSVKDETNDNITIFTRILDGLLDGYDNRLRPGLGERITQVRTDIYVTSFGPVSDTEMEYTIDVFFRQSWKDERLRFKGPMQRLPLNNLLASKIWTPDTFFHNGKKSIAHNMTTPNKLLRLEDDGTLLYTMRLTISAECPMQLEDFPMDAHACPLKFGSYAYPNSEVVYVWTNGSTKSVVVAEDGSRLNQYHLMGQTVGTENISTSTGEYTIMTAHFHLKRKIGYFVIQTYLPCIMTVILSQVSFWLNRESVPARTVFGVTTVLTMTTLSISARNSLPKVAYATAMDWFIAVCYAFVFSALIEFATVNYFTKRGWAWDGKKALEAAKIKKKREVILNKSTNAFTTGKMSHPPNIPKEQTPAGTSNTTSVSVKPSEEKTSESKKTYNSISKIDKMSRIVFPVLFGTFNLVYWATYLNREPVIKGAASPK
# T3 sequence (P24046 whole entry): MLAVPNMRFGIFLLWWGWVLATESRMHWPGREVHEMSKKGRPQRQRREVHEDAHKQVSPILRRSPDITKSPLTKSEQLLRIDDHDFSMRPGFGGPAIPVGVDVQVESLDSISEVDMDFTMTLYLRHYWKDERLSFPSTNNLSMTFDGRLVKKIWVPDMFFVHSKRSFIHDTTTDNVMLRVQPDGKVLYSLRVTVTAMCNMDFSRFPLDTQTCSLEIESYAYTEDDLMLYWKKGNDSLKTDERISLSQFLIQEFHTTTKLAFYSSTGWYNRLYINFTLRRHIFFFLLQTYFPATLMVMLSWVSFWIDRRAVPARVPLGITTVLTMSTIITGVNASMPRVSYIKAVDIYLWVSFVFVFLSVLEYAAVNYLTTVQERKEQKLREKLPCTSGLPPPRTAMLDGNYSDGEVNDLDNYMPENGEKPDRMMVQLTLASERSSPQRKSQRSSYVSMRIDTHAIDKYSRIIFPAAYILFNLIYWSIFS
# Chain of Gamma-aminobutyric acid receptor subunit alpha-4/beta-2/gamma-2 (Homo sapiens, UniProt P18507+P47870+P48169) (P48169 whole entry, one chain of several): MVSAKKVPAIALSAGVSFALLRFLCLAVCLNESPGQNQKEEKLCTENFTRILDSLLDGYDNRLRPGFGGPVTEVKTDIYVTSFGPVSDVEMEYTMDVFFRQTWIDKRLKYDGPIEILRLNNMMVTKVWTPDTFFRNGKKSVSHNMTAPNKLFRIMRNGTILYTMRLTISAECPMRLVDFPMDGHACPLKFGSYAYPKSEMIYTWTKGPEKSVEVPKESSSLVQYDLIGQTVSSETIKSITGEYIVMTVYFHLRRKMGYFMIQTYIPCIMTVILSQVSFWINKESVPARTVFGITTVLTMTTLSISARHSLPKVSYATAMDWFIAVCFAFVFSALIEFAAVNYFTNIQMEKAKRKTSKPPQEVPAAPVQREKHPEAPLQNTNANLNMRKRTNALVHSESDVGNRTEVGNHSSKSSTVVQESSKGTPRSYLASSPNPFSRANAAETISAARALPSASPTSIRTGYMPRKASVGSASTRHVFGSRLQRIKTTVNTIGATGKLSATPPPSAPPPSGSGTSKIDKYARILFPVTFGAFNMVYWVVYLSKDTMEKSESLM
# Chain of Sodium- and chloride-dependent GABA transporter 1 (P30531 whole entry, looked up): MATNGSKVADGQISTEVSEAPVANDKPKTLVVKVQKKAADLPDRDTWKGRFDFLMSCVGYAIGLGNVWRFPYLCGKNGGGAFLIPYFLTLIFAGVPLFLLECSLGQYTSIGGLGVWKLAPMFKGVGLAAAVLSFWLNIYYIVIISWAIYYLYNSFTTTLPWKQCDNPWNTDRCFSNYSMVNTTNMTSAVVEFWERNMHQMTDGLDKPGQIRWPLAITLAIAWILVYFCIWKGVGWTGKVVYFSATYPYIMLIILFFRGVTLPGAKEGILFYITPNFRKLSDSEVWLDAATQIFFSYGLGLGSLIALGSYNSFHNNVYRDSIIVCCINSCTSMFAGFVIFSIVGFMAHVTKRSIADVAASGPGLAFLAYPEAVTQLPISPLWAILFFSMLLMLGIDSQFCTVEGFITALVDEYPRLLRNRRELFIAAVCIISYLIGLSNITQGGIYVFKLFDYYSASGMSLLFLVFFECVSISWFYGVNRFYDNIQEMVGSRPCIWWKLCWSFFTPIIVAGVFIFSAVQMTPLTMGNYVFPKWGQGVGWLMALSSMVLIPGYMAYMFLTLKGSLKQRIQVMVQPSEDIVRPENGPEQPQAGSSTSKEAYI
Rmax [1],IC50 [2],IC50 [3],Rmax [5],Rmax [6],Rmax [7],inhibition [8],inhibition [9],inhibition [10],inhibition [11],Ki [12],EC50 [13],EC50 [14],EC50 ([15]; read-out: EC50),EC50 ([15]; read-out: pEC50 (converted)),EC50 ([16]; read-out: EC50),EC50 ([16]; read-out: pEC50 (converted)),EC50 [17],Compound,Rmax [4]
100%,26000 nM,11000 nM,,,,,,,,,,,,,,,,NCCCC(=O)O [GAMMA-AMINOBUTYRIC ACID],
69%,,,32%,97%,63%,> 30%,> 30%,> 30%,> 30%,,,,,,,,,CC(C(=O)O)C1CSC(N)=N1 (stereo in doubt; l-10a),83%
97%,,,105%,104%,75%,,,,,59 nM,5400 nM,1500 nM,370 nM,372 nM,590 nM,5890 nM,120 nM,NC1=N[C@H](CC(=O)O)CS1,98%
65%,,,53%,103%,34%,,,,,360 nM,3700 nM,12000 nM,2400 nM,2340 nM,8600 nM,,560 nM,NC1=N[C@@H](CC(=O)O)CS1,102%
